In publication PMC8646019, “Azvudine is a thymus-homing anti-SARS-CoV-2 drug effective in treating COVID-19 patients” (Signal Transduction and Targeted Therapy, 2021):

Columns and labels:
SARS-CoV-2 = test: Multi-color immunofluorescence staining and tissue cytometry (Tissue FAXS) of infected rhesus macaque tissues; type: in vivo, rhesus macaques
Excerpt: To further verify the antiviral effect of FNC in the thymus, viral S-protein in the thymus was detected with immune staining. […] Tissue ACE2 was stained red, and viral S-protein was stained green. More green signals were detected in the thymus of the untreated monkey than in the FNC-treated one. Viral S-protein was quantitatively measured in the thymus with the Tissue FAXS platform and Tissue Quest software (Tissue Gnostics).[10],[26]–[30] […] The results of all eight monkeys are shown in Supplementary Fig. 10. […] Further evaluation of thymus cells undergoing programmed death was done with TUNEL staining, followed by quantitation with Tissue FAXS platform and Tissue Quest software (Tissue Gnostics, described in Methods). As shown in Supplementary Fig. 11, the number of apoptotic thymus cells from the untreated virus (+) monkeys was much higher than that from the FNC-treated ones.
Fig. 5 FNC-protected thymus from the damage by SARS-CoV-2 infection. By the end of the experiment, the RM monkeys have practiced euthanasia, and the thymus samples were collected. a The representative images of the multi-color immunofluorescent staining were for ACE2 (red) and S protein (green) in the thymus of the RM monkeys that were inoculated with SARS-CoV-2 and treated or untreated with FNC. The regions of interest (ROI) are boxed in white, and their magnified photos are shown in the middle, with a decomposition diagram on the right. […] The regions of interest (ROI) are boxed in white, and their magnified photos are shown below. Data are presented as mean ± SEM (n = 4), *p < 0.05, FNC-treated group vs. untreated group, by Mann–Whitney U test TEXT PRINTED IN THE PICTURE: (b) FNC: ACE2 Mean Intensity / ACE2 Area (um2): 26.43%; S-protein Mean Intensity / S protein Area (um2): 9.83% DOUBTS OF THE COPYIST ABOUT THIS PICTURE: Panel b prints no group label. […] They are left out because an untreated control is not a substance. / The percentages in panel b have no printed measure. The axis titles of each plot were used as the measure.
Tyramide Signal Amplification (TSA)^3 method was used for single staining of IL-4, IL-10, IL13, RORγt and tunnel; double staining of CD3 and CD20, ACE2 and S-protein; as well as triple staining of CD3, CD4 and CD8; ACE2, S-protein and N-protein. In brief, for each marker, the samples were treated with rabbit primary antibody and then incubated with HRP-conjugated goat anti-rabbit secondary antibody. After washing, slides were incubated with fluorescent reagent then heated with microwave oven to remove the combined antibodies. The antibodies were in Table S5.
As described by Kaneko and colleagues,^4 microscopy-based multi color tissue cytometry was applied for quantitative analysis. In brief, images of the tissue specimens were acquired through the Tissue FAXS platform (Tissue Gnostics).^5,6 The area of the detected tissue was acquired as a digital gray scale image in four channels with filter settings for FITC, Cy3, Cy5 and DAPI. Cells of each phenotype were identified and quantitated, relative to the positive controls.

[1] = Biodistribution and metabolism of FNC in rats (UHPLC-MS/MS); details: male, Sprague-Dawley, in vivo, rat, FNC 5 mg/kg oral, average n=5, read-out: Concentration in kidney
Experimental: Fig. 2 Thymus-homing distribution and metabolism of FNC after oral administration in rats. Twenty-five male Sprague–Dawley rats were orally administered with FNC at a single dose of 5 mg/kg. At the time point of 1, 2, 6, 12, and 24 h after drug administration, 5 rats were dissected. The blood, as well as the heart, liver, spleen, lung, kidney, brain, thymus, testis, and epididymis, were collected. Peripheral blood mononuclear cells (PBMCs) were isolated from blood using Histopaque-1083. The distribution of FNC in plasma, PBMCs, and the different tissues was evaluated through UHPLC–MS/MS analysis performed on an UHPLC system (1290 series, Agilent Technologies, USA) coupled to a triple quadrupole mass spectrometer (Agilent 6470 QQQ). a Metabolic pathway of FNC. b FNC distribution in tissues and plasma (5 mg/kg, oral). c FNC-TP levels in the blood (5 mg/kg, oral). d FNC-TP levels in tissues (5 mg/kg, oral). e FNC and its phosphate metabolites (FNC-MP, FNC-DP, and FNC-TP) in the thymus (5 mg/kg). f FNC and its phosphate metabolites in PBMCs (5 mg/kg).
25 male Sprague-Dawley rats (200 ± 15 g) were purchased from Vital River Laboratories Co., LTD (Beijng, China). The animals were housed under specific pathogen-free conditions (12 h light/12 h dark photoperiod, 25 ± 2°C, 50±5% relative humidity). All rats were allowed to acclimate for 1 week before experiments. Research was conducted in accordance with all institutional guidelines and ethics and approved by the Laboratories Institutional Animal Care and Use Committee of the Chinese Academy of Medical Sciences and Peking Union Medical College.
Rats were divided randomly into five groups with five rats in each, and were administered with azvudine at a single dose of 5 mg/kg. At the time point of 1h, 2h, 6h, 12h and 24h after drug administration, rats in one group were dissected with euthanization and blood samples were collected using heparin as an anticoagulant. 0.5 ml of blood was transferred to another 1.5ml eppendorf tube to obtain plasma by centrifugation (3500 r/min ×15 min). The tissues, including heart, liver, spleen, lung, kidney, brain, thymus, testis, and epididymis, were collected, and washed with cold 0.9% normal saline, and then kept at -80°C until analysis.
Peripheral blood mononuclear cells (PBMCs) were isolated from blood using Histopaque-1083 according to the manufacturer’s protocol. Firstly, 2 mL of blood collected in heparin sodium tube was diluted with 2 mL of PBS solution. Then, 4mL of diluted blood was layered on top of 4 mL Histopaque-1083 and centrifuged for 30 min at 2000 r/min. PBMCs were then aspirated, washed twice with PBS solution, suspended in PBS, and counted with a hemocytometer. Furtherly, PBMCs were centrifuged (2000 r/min ×10 min), lysed with 1ml of cold 80% methanol for 12h, then ultrasonic for cell disruption (3min). Finally, the cell lysates were stored in -80°C until sample preparation.
Tissue samples were weighed and 2-fold volume of 0.9% saline containing phosphatase inhibitor was added to prepare the homogenate on the ice. Then tissue homogenate was ultrasonic extracted for 5 min in the ice bath. 200μL of plasma or tissue homogenate was transferred into a 1.5 ml eppendorf tube and added 600 μL of methanol solution with internal standards. The sample was vortexed for 5 min and kept at 4°C for 15min, then centrifuged at 13000r/min for 10 min (4°C). […]

thymus cells = type: in vivo, rhesus macaques
[2] = FNC-treated monkeys, n = 4, Tissue FAXS
[3] = FNC-treated monkey #17368, scRNA-seq

Question: Which results are given for `[N-]=[N+]=N[C@]1(CO)O[C@@H](n2ccc(N)nc2=O)[C@@H](F)[C@@H]1O` [FNC, 2′-deoxy-2′-β-fluoro-4′-azidocytidine]?
Answer: viral S- and N-protein signal in the lung (immune staining) (SARS-CoV-2; FNC-treated monkeys vs untreated): noticeably reduced; S-protein-positive cells in thymus, proportion (SARS-CoV-2; [2]): 8.36 ± 4.84%; absolute numbers of ACE2+ cells in thymus (SARS-CoV-2; [2]): 38,929 ± 19,470 cells; number of S-protein-positive cells in thymus (SARS-CoV-2; [2]): 8941 ± 5436 cells; relative proportion of ACE2+ cells in thymus (SARS-CoV-2; [2]): 35.96 ± 16.90%; concentration at 1 h ([1]; 1 h): 515 ng/g; concentration at 2 h ([1]; 2 h): 798 ng/g; concentration at 6 h ([1]; 6 h): 269 ng/g; concentration at 12 h ([1]; 12 h): 76.5 ng/g; concentration at 24 h ([1]; 24 h): 78.1 ng/g; Proportion of B cells in thymus (thymus cells; [3]): 4.1%; Proportion of CD4 cells in thymus (thymus cells; [3]): 17.5%; Proportion of CD8 cells in thymus (thymus cells; [3]): 22.8%; Proportion of NKT cells in thymus (thymus cells; [3]): 4.6%; expression of IL-4, IL-13, and IL-10 in the thymus cells (thymus cells; FNC-treated monkey #17368 vs untreated #17041): elevated
